Results on 1 compound are retold here after US12343326B2, “Psychoactive medicines and their use for treating psychiatric and neurological conditions and disorders” (Transcend Therapeutics, Inc., priority 2021, dated 2025).

Test [1] concerns Male Sprague Dawley rats. In words: Forced Swim Test (FST). It is filed as in vivo, rat. From the text: The Forced Swim Test (FST) is a classic, and the most used preclinical behavioral assay to screen compounds with antidepressant-like activity and has high predictive and face validity (Porsolt et al. (1977) Nature 266:730; Borsini and Meli (1988) Psychopharmacology 94:147). The premise of the FST is that when rats are placed into a cylinder filled with water, they will initially try to escape, but over time will become immobile. This increased immobility reflects behavioral despair, modeling a depressive-like state.
Forced Swim Test (FST): In the FST trial, rats were placed in a circular plexiglass container filled with water, with no means of escape. Water temperature was maintained at 22-25° C. and changed for every animal. After an acclimation period, rats were timed for inactivity (failure to struggle), activity, swim time and climbing time. Day 1 consisted of a 15 min acclimation trial, and Day 2 (24 h later) consisted of the 5 min test. A time sampling procedure was employed where animals were observed every 5 sec and scored for immobility, swimming, or climbing. Fluoxetine (10 mg/kg, IP, Sigma Aldrich) or 0.9% sterile saline vehicle (vehicle 3× group) were administered 23.5, 5, and 1 h before testing in the FST. […] The experimenter was blinded to treatment.
Forced Swim Test: In the FST trial, rats were placed in a circular plexiglass container filled with water, with no means of escape. Water temperature was maintained at 22-25° C. and changed for every animal. After an acclimation period, rats were timed for inactivity (failure to struggle), activity, swim time and climbing time. Day 1 consisted of a 15 min acclimation trial, and Day 2 (24 h later) consisted of the 5 min test. A time sampling procedure was employed where animals were observed every 5 sec and scored for immobility, swimming, or climbing. Fluoxetine (10 mg/kg, IP, Sigma Aldrich) or 0.9% sterile saline vehicle (vehicle 3× group) were administered 23.5, 5, and 1 h before testing in the FST. 2C-B (2.5, 10, or 20 mg/kg, IP, Cayman Chemical) or 0.9% saline vehicle (vehicle 1× group) were administered 30 min prior to FST testing. The experimenter was blinded to treatment.
Drug Treatment: Fluoxetine (10 mg/kg, IP, Sigma Aldrich) or 0.9% sterile saline vehicle were administered 23.5, 5, and 1 h before testing in the FST. […] Control animals received fluoxetine alone, methylone alone, or saline vehicle.
Forced Swim Test: In the FST trial, rats were placed in a circular plexiglass container filled with water, with no means of escape. Water temperature was maintained at 22-25° C. and changed for every animal. After an acclimation period, rats were timed for inactivity (failure to struggle), activity, swim time and climbing time. The experimenter and scorer were blind to treatment group. Day 1 consisted of a 15 min acclimation trial, and Day 2 (24 h later) consisted of the 5 min test. A time sampling procedure was employed where animals were observed every 5 sec and scored for immobility, swimming, or climbing.
Control animals received saline vehicle. The dosing schedule and experimental design are found in FIG. 12A.
The FST was performed and scored by an experimenter blind to treatment group according to standard protocols and based on a “modified FST” procedure (Slattery and Cryan (2012) Nat Protoc, 7:1009). Briefly, rats were placed in a circular plexiglass container (29.2 cm diameter, 49.5 cm height) filled with water to a depth of 30 cm so rats could not support themselves by touching the bottom of the tank. Water was maintained at 22-25° C. and was changed for every animal. Day 1 (Training) consisted of a 15 min acclimation trial, and Day 2 (Testing, 24 h later) consisted of the 5 min test. […]

Test [2] concerns rats with reserpine-induced pain sensitivity. In words: Reserpine-induced fibromyalgia model, von Frey test. It is filed as in vivo, rat. Conditions: methylone 15 mg/kg IP, 30 min before testing, day 4 after reserpine. On the procedure: Reserpine (1 mg/kg/s.c.) is administered for 3 days to mimic chronic widespread pain and complex symptoms.
In this Example, male Sprague Dawley rats are tested in a behavioral model of FMA based on the protocol from Nakagura et al. (2009) Pain 146:26. This model uses three daily doses of reserpine (1 mg/kg, SC) or 0.5% acetic acid vehicle to reduce pain thresholds (i.e., increase pain perception) in the Von Frey Test (vFT, procedure outlined below).
Von Frey Test (vFT) procedure: Increasing pain thresholds in this test are consistent with a reduction in pain perception. Prior to the start of dosing, rats are tested for their baseline mechanical pain threshold. For von Frey measurements, animals are placed into wire bottom cubicles with opaque Plexiglas walls, allowing access to the underside of their paws. Animals are habituated to this environment for at least 30 minutes before the start of the von Frey filament application. Static allodynia is measured using Semmes-Weinstein von Frey filaments (Stoelting, Wood Dale, IL). Mechanical allodynia is tested by touching the plantar surface of the animals' left and right hind paws with von Frey filaments which deliver a calibrated amount of force. Each von Frey filament is presented perpendicularly to the plantar surface for approximately 6 seconds of constant application in either ascending or descending strength in a modified up-and-down method (Chaplan et al. (1994) J Neurosci. Meth. 53:55). Stimulation is presented at intervals of several seconds, allowing for apparent resolution of any behavioral responses to previous stimuli. A positive response is noted if the paw is sharply withdrawn. Flinching immediately upon removal of the hair is also considered a positive response. […]
VonFrey measurements: Animals were placed into wire bottom cubicles with opaque Plexiglas walls, allowing access to the underside of their paws. […] Static allodynia was measured using Semmes-Weinstein von Frey filaments (Stoelting, Wood Dale, IL). […] The average hindpaw thresholds were determined 60-min post-injection. […]

On to `CNC(C)C(=O)c1ccc2c(c1)OCO2` (centres unmarked) [methylone, 3,4-methylenedioxy-N-methylcathinone], for which, in test [1] (Example 8), the “climbing behavior (FST)” value is on record as “significantly increased climbing behavior”. In addition, the “effectiveness in the FST” value in test [1] (doses of 10 mg/kg or more) is on record as “maximally effective”. Moreover, in test [1] (four […] IP doses 20.5, 8.5, 4.5 and 0.5 hours before testing), the “antidepressant-like effect (FST), multiple lower doses” value is on record as “significant antidepressant-like effects”. Moreover, the “climbing (FST)” value in test [1] (methylone IP dose range, 30 min before testing) is “only increased at the lowest dose”. Besides, in test [1] (mid and high doses of methylone IP, 30 min before testing), the “swimming (FST)” value is on record as “significantly increased swimming”. The “antidepressant-like effect (FST) vs. vehicle” value in test [1] (single dose 15 mg/kg PO, 2 hours before testing) is “significant antidepressant-like effect”. The “immobility (FST) vs. saline vehicle” value in test [1] (single dose 5, 10, 15, 20 and 30 mg/kg IP, 30 min before testing) is “significantly reduced immobility”. Besides, the “paw withdrawal thresholds (von Frey)” value in test [2] is given as “significantly increased paw withdrawal thresholds”.
